Data from patent US6844353B2, “Fungicidal properties of sampangine and its analogs to agriculturally important fungal plant pathogens” (The United States of America as represented by the …, priority 2003, dated 2005).

System: C. fragariae isolate CF-75
Assay: Detached strawberry leaf assay
Format: in vivo, Colletotrichum fragariae
Conditions: detached strawberry leaves (cultivar Chandler), five days after application
Text: Strawberry plants of the cultivar Chandler were maintained in a warm greenhouse under conditions suitable for optimum vegetative growth. The youngest fully expanded leaf with the entire petiole from each plant was collected. The petiole of each leaf was inserted into a small test tube (10×4 mm) and filled with sterile distilled water. The left leaflet of each leaf was inoculated with C. fragariae isolate CF-75 (1.5×10^6 conidia/ml) using a hand pump sprayer. The inoculated leaves were placed in a dew chamber and incubated overnight at 30° C. and 100% relative humidity, removed from the dew chamber and allowed to dry. The test compound was applied using a chromatography sprayer until the upper surface of each leaflet was coated. After allowing the leaves to air dry for 2 hours, the right leaflet of each leaf was inoculated with C. fragariae isolate CF-75. The leaves were incubated in the dew chamber at 30° C. and 100% relative humidity for 48 hours. The leaves were then removed from the dew chamber and held in a moist chamber for 3 days (total of five days since test compounds were applied). The number of lesions on each leaflet were then counted.

CO/C=C(/C(=O)OC)c1ccccc1Oc1cc(Oc2ccccc2C#N)ncn1 [Azoxystrobin]
Disease severity scores (# disease lesions) (Concentration 625 (unit not given)): 4.46
Disease severity scores (# disease lesions) (Concentration 1250 (unit not given)): 1.58
Disease severity scores (# disease lesions) (Concentration 2500 (unit not given)): 3.54
